Data on three compounds can be found in PMC7076174 (Frontiers in Oncology, 2020).

The procedure of series [1]:
Lithium carbonate (lithium) 300 mg was administered orally three times a day (or two times daily for patients age ≥65 years) starting on day - 3 prior to cycle 1 and on day 1 of all subsequent cycles consisting of 28 days (Figure 1). The “lead-in” period prior to cycle 1 was designed to allow for correlative studies to investigate the effects of lithium on leukemic cell GSK3 activity and to ensure achievement of adequate serum lithium concentrations prior to tretinoin exposure. The target serum lithium concentration was the laboratory-defined therapeutic range of 0.6–1.0 mmol/L based on toxicity in humans for treatment of mood disorders. Dose adjustments were made based on the serum lithium concentration (Supplementary Figure 1). Dosing of tretinoin followed a “3+3” study design with three patients sequentially enrolled at each dose level ([13]). Tretinoin was administered orally at a dose of 22.5 mg/m^2/day (dose level 1) or 45 mg/m^2/day (dose level 2) in two divided doses, from days 1 to 7 and from days 15 to 21 of a 28-day cycle.

Series [2] has as its system GSK3. To be noted: cited from earlier work.
For series [3], the system named is GSK3. To be noted: six patients with evaluable samples; CD34+ and/or CD117+ cells.
Method: Blood samples were collected at baseline, days 1, 8, and 30 and at the end of the study period. Specimens were processed only if ≥5% leukemic cells were present in the blood as assessed using morphologic criteria. […] Bone marrow was collected at baseline and end of study. Immunophenotyping was performed by multi-parameter flow cytometry using fluorochrome-labeled antibodies to CD11b, CD14, and CD15 as markers for monocytic and/or granulocytic differentiation ([19]–[22]). The stained samples were run on a BD Biosciences LSRII (San Jose, CA, USA) flow cytometer. Cells were concurrently stained for CD34, CD117, and CD38 for identification of the leukemic blast and stem cell populations (CD34+ CD38–). […] Phosphorylated Serine-9 GSK3β antibody was obtained from Cell Signaling Technologies (Beverly, MA, USA).
Series [4] has as its system CD34+ CD38– AML stem cell population. To be noted: tretinoin 0.5 μM, 6 days; in three samples.
From the text: In order to study the separate effects of GSK3 inhibition or tretinoin on AML stem cells, we used previously obtained cryopreserved blood samples from the Eastern Cooperative Oncology Group (ECOG) tumor repository of newly diagnosed and untreated AML patients (independent of this trial) to conduct in vitro studies. […] Cryopreserved cells were thawed and cultured in RPMI 1640 media (Hyclone) containing 10% fetal bovine serum (Sigma-Aldrich, St. Louis, MO, USA) and 1% final concentration penicillin and streptomycin. Amphotericin B (0.5 μg/ml) and ciprofloxacin (10 μg/ml) were added to help eliminate fungal and mycoplasma contamination in the cell culture. Cells were treated with SB415285 (10 μM) obtained from Tocris (Bristol, UK), a laboratory-grade GSK3 inhibitor which competitively binds to the ATP binding site of GSK3 ([23]), and tretinoin (0.5 μM). […] After 6 days, immunophenotyping for the CD34+ CD38– AML stem cell population was performed by flow cytometry.
For a further series, the system named is GSKβ. Set-up: method as in PMID 23305709. To be noted: cited from earlier work.
The subject of a further series is GSK3α. Set-up: method as in PMID 23305709. To be noted: cited from earlier work.

`O=C([O-])[O-].[Li+].[Li+]` [lithium, Lithium carbonate]: the “Target serum lithium concentration (0.6–1.0 mmol/L) achieved” value in series [1] (oral lithium carbonate 300 mg 2–3 times daily, dose adjusted) is “achieved at least once in all nine patients”. Also, in series [1] (patient with delirium (DLT), third week of treatment, dose level 1), the “Serum lithium concentration at admission” value is given as 0.28 mmol/L. Also, the “Lithium threshold concentration necessary in vivo to significantly inhibit GSK3” value with GSK3 [2] is reported as ~ 0.8 mmol/L. Further, the “Median increase in pGSK3β, change in mean fluorescence intensity (MFI) from baseline” value in the series with GSK3 [3] is on record as 1,093 (range, 111–1,738).
With `CC1=C(/C=C/C(C)=C/C=C/C(C)=C/C(=O)O)C(C)(C)CCC1` [tretinoin], in series [4], the “Reduction of the CD34+ CD38– population, tretinoin alone vs combination with SB415285” value is “comparable reduction of the CD34+ CD38– population”.
With `O=C1NC(=O)C(c2cnc3ccccn23)=C1c1cn2c3c(cc(F)cc13)CN(C(=O)N1CCCCC1)CC2` [LY2090314], the IC50 is 0.9 nM in the series with GSKβ and 1.5 nM in the series with GSK3α.
